The molecules below were run on HBV rcDNA in HepDE19 cells (assay: HepDE19 assay with bDNA quantitation of HBV rcDNA). Settings: HepDE19 assay, inhibition of rcDNA formation, bDNA quantitation; read-out: DE-19bDNA EC50.
Assay type: cell-based, hepatitis B virus
With `Cc1cc(F)cc2[nH]c(C(=O)N(C)C3CNCc4[nH]c(=O)c5cc(F)c(F)cc5c43)cc12` (single isomer, unassigned) [Compound 458, N-(8,9-difluoro-6-oxo-1,2,3,4,5,6-hexahydrobenzo[c][1,7]naphthyridin-1-yl)-6-fluoro-N,4-dimethyl-1H-indole-2-carboxamide] the EC50 was 6.6 µM. For `CN(C(=O)c1cc2c(Cl)cc(F)cc2[nH]1)C1CNCc2[nH]c(=O)c3cc(F)c(F)cc3c21` (single isomer, unassigned) [Compound 460, 4-chloro-N-(8,9-difluoro-6-oxo-1,2,3,4,5,6-hexahydrobenzo[c][1,7]naphthyridin-1-yl)-6-fluoro-N-methyl-1H-indole-2-carboxamide], the EC50 was 11.2 µM. Work on `CN(C(=O)c1cc2ccccc2[nH]1)C1CCCc2[nH]c(=O)c3cc(F)ccc3c21` (single isomer, unassigned) [Compound 476, N-(8-Fluoro-6-oxo-1,2,3,4,5,6-hexahydrophenanthridin-1-yl)-N-methyl-1H-indole-2-carboxamide] yielded an EC50 of 0.02 µM. For `CN(C(=O)c1cc2c(C(F)F)c(F)ccc2[nH]1)C1COCc2[nH]c(=O)c3cc(F)ccc3c21` (single isomer, unassigned) [Compound 255, 4-(Difluoromethyl)-5-fluoro-N-(8-fluoro-6-oxo-1,4,5,6-tetrahydro-2H-pyrano[3,4-c]isoquinolin-1-yl)-N-methyl-1H-indole-2-carboxamide], the EC50 was 0.68 µM. `CN(C(=O)c1cc2cc(F)ccc2[nH]1)[C@@H]1CCC(O)c2[nH]c(=O)c3cc(F)c(F)cc3c21` (single isomer, unassigned) [Compound 502] gave an EC50 of 0.03 µM. Work on `CN(C(=O)c1cc2ccccc2[nH]1)C1CN(CCO)Cc2[nH]c(=O)c3cc(F)ccc3c21` (single isomer, unassigned) [Compound 80, N-(8-Fluoro-3-(2-hydroxyethyl)-6-oxo-1,2,3,4,5,6-hexahydrobenzo[c][1,7]naphthyridin-1-yl)-N-methyl-1H-indole-2-carboxamide] yielded an EC50 of 6.3 µM. Work on `CN(C(=O)c1ccc2cn[nH]c2c1)C1COCc2[nH]c(=O)c3cc(F)ccc3c21` (single isomer, unassigned) [Compound 470, N-(8-fluoro-6-oxo-1,4,5,6-tetrahydro-2H-pyrano[3,4-c]isoquinolin-1-yl)-N-methyl-1H-indazole-6-carboxamide] yielded an EC50 of 1.1 µM. Molecule `CN(C(=O)c1cc2cc(F)ccc2[nH]1)C1COCc2[nH]c(=O)c3cc(F)c(F)cc3c21` (single isomer, unassigned) [Compound 28, N-(8,9-Difluoro-6-oxo-1,4,5,6-tetrahydro-2H-pyrano[3,4-c]isoquinolin-1-yl)-5-fluoro-N-methyl-1H-indole-2-carboxamide] has an EC50 of 0.004 µM. In the case of `CN(C(=O)c1ccc2scnc2c1)C1COCc2[nH]c(=O)c3cc(F)ccc3c21` (single isomer, unassigned) [Compound 444, N-(8-fluoro-6-oxo-1,4,5,6-tetrahydro-2H-pyrano[3,4-c]isoquinolin-1-yl)-N-methylbenzo[d]thiazole-5-carboxamide], the EC50 is reported as 12.2 µM. Molecule `CN(C(=O)c1cc2ccccc2[nH]1)C1CN(CCO)Cc2[nH]c(=O)c3cc(F)c(F)cc3c21` (single isomer, unassigned) [Compound 90, N-(8,9-Difluoro-3-(2-hydroxyethyl)-6-oxo-1,2,3,4,5,6-hexahydrobenzo[c][1,7]naphthyridin-1-yl)-N-methyl-1H-indole-2-carboxamide] has an EC50 of 0.5 µM. `CN(C(=O)c1cc2sccc2[nH]1)C1COCc2[nH]c(=O)c3cc(F)ccc3c21` (single isomer, unassigned) [Compound 381, N-(8-Fluoro-6-oxo-1,4,5,6-tetrahydro-2H-pyrano[3,4-c]isoquinolin-1-yl)-N-methyl-4H-thieno[3,2-b]pyrrole-5-carboxamide] showed an EC50 of 0.04 µM.

Same assay, conditions: Hepatitis B virus, HepDE19, HepDE19 assay, inhibition of rcDNA formation, bDNA quantitation; read-out: DE-19bDNA EC50
`CCn1nc(Cl)c2cc(C(=O)N(C)[C@@H]3COCc4[nH]c(=O)c5cc(F)c(F)cc5c43)ccc21` [Compound 416, (S)-3-Chloro-N-(8,9-difluoro-6-oxo-1,4,5,6-tetrahydro-2H-pyrano[3,4-c]isoquinolin-1-yl)-1-ethyl-N-methyl-1H-indazole-5-carboxamide] gave an EC50 of 0.08 µM. Molecule `Cc1cc(F)cc2[nH]c(C(=O)N(C)C3COCc4[nH]c(=O)c5cc(F)ccc5c43)cc12` (racemic) [Compound 455, 6-Fluoro-N-(8-fluoro-6-oxo-1,4,5,6-tetrahydro-2H-pyrano[3,4-c]isoquinolin-1-yl)-N,4-dimethyl-1H-indole-2-carboxamide] has an EC50 of 0.02 µM. Work on `CN(C(=O)c1ccc2c(cnn2C(F)F)c1)[C@@H]1COCc2[nH]c(=O)c3cc(F)c(F)cc3c21` [Compound 437, (S)-N-(8,9-Difluoro-6-oxo-1,4,5,6-tetrahydro-2H-pyrano[3,4-c]isoquinolin-1-yl)-1-(difluoromethyl)-N-methyl-1H-indazole-5-carboxamide] yielded an EC50 of 0.005 µM. Molecule `CN(C(=O)c1ccc(Cl)c(Cl)c1)[C@@H]1COCc2[nH]c(=O)c3cc(F)c(F)cc3c21` [Compound 361, (S)-3,4-Dichloro-N-(8,9-difluoro-6-oxo-1,4,5,6-tetrahydro-2H-pyrano[3,4-c]isoquinolin-1-yl)-N-methylbenzamide] has an EC50 of 0.01 µM. For `CN(C(=O)c1ccnc(C(F)F)c1)[C@@H]1COCc2[nH]c(=O)c3cc(F)c(F)cc3c21` [Compound 313, (S)-N-(8,9-Difluoro-6-oxo-1,4,5,6-tetrahydro-2H-pyrano[3,4-c]isoquinolin-1-yl)-2-(difluoromethyl)-N-methylisonicotinamide], the EC50 was 0.17 µM. Work on `CN(C(=O)c1ccc(Cl)c(F)c1)[C@@H]1COCc2[nH]c(=O)c3cc(F)c(F)cc3c21` [Compound 75, (S)-4-Chloro-N-(8,9-difluoro-6-oxo-1,4,5,6-tetrahydro-2H-pyrano[3,4-c]isoquinolin-1-yl)-3-fluoro-N-methylbenzamide] yielded an EC50 of 0.02 µM. For `CN(C(=O)c1ccccc1)[C@@H]1COCc2[nH]c(=O)c3cc(F)c(F)cc3c21` [Compound 91, (S)-N-(8,9-Difluoro-6-oxo-1,4,5,6-tetrahydro-2H-pyrano[3,4-c]isoquinolin-1-yl)-N-methylbenzamide], the EC50 was 1.01 µM. In the case of `COc1c2cc(C(=O)N(C)[C@@H]3COCc4[nH]c(=O)c5cc(F)c(F)cc5c43)ccc2nn1C(F)F` [Compound 368, (S)-N-(8,9-Difluoro-6-oxo-1,4,5,6-tetrahydro-2H-pyrano[3,4-c]isoquinolin-1-yl)-2-(difluoromethyl)-3-methoxy-N-methyl-2H-indazole-5-carboxamide], the EC50 is reported as 3.4 µM. `CN(C(=O)c1cc2ccnc(Cl)c2[nH]1)[C@@H]1COCc2[nH]c(=O)c3cc(F)c(F)cc3c21` [Compound 371, (S)-7-Chloro-N-(8,9-difluoro-6-oxo-1,4,5,6-tetrahydro-2H-pyrano[3,4-c]isoquinolin-1-yl)-N-methyl-1H-pyrrolo[2,3-c]pyridine-2-carboxamide] gave an EC50 of 0.14 µM. In the case of `CN(C(=O)[C@@H](O)Cc1ccccc1)[C@@H]1COCc2[nH]c(=O)c3cc(F)c(F)cc3c21` [Compound 87, (S)-N-((S)-8,9-Difluoro-6-oxo-1,4,5,6-tetrahydro-2H-pyrano[3,4-c]isoquinolin-1-yl)-2-hydroxy-N-methyl-3-phenylpropanamide], the EC50 is reported as 3.2 µM. `Cc1ccc2[nH]c(C(=O)N(C)[C@@H]3COCc4[nH]c(=O)c5cc(F)c(F)cc5c43)cc2c1` [Compound 326, (S)-N-(8,9-Difluoro-6-oxo-1,4,5,6-tetrahydro-2H-pyrano[3,4-c]isoquinolin-1-yl)-N,5-dimethyl-1H-indole-2-carboxamide] showed an EC50 of 2.5 µM. For `CN(C(=O)c1ccc2c(c1)c(Cl)nn2C)[C@@H]1COCc2[nH]c(=O)c3cc(F)c(F)cc3c21` [Compound 415, (S)-3-Chloro-N-(8,9-difluoro-6-oxo-1,4,5,6-tetrahydro-2H-pyrano[3,4-c]isoquinolin-1-yl)-N,1-dimethyl-1H-indazole-5-carboxamide], the EC50 was 0.06 µM. `CN(C(=O)c1ccc2cccnc2c1)[C@@H]1COCc2[nH]c(=O)c3cc(F)c(F)cc3c21` [Compound 66, (S)-N-(8,9-Difluoro-6-oxo-1,4,5,6-tetrahydro-2H-pyrano[3,4-c]isoquinolin-1-yl)-N-methylquinoline-7-carboxamide] gave an EC50 of 2.3 µM. `CN(C(=O)C1Nc2ccccc2C1(C)C)C1COCc2[nH]c(=O)c3cc(F)c(F)cc3c21` (stereo not drawn) [Compound 56, N-(8,9-Difluoro-6-oxo-1,4,5,6-tetrahydro-2H-pyrano[3,4-c]isoquinolin-1-yl)-N,3,3-trimethylindoline-2-carboxamide] gave an EC50 of 18 µM. With `CN(C(=O)c1cc(F)c(F)c(F)c1)[C@@H]1COCc2[nH]c(=O)c3cc(F)c(F)cc3c21` [Compound 76, (S)-N-(8,9-Difluoro-6-oxo-1,4,5,6-tetrahydro-2H-pyrano[3,4-c]isoquinolin-1-yl)-3,4,5-trifluoro-N-methylbenzamide] the EC50 was 0.09 µM. With `CN(C(=O)C(F)(F)c1ccc(Br)cc1)[C@@H]1COCc2[nH]c(=O)c3cc(F)c(F)cc3c21` [Compound 253, (S)-2-(4-Bromophenyl)-N-(8,9-difluoro-6-oxo-1,4,5,6-tetrahydro-2H-pyrano[3,4-c]isoquinolin-1-yl)-2,2-difluoro-N-methylacetamide] the EC50 was 8 µM. In the case of `CN(C(=O)c1ccc(F)c(Br)c1)[C@@H]1COCc2[nH]c(=O)c3cc(F)c(F)cc3c21` [Compound 130, (S)-3-Bromo-N-(8,9-difluoro-6-oxo-1,4,5,6-tetrahydro-2H-pyrano[3,4-c]isoquinolin-1-yl)-4-fluoro-N-methylbenzamide], the EC50 is reported as 0.01 µM. `CN([C@@H]1COCc2[nH]c(=O)c3cc(F)c(F)cc3c21)S(=O)(=O)c1cccc(Cl)c1` [Compound 144, (S)-3-Chloro-N-(8,9-difluoro-6-oxo-1,4,5,6-tetrahydro-2H-pyrano[3,4-c]isoquinolin-1-yl)-N-methylbenzenesulfonamide] showed an EC50 of 12 µM. Work on `CN(C(=O)c1cc2sc(Cl)cc2[nH]1)[C@@H]1COCc2[nH]c(=O)c3cc(F)c(F)cc3c21` [Compound 349, (S)-2-Chloro-N-(8,9-difluoro-6-oxo-1,4,5,6-tetrahydro-2H-pyrano[3,4-c]isoquinolin-1-yl)-N-methyl-4H-thieno[3,2-b]pyrrole-5-carboxamide] yielded an EC50 of 0.01 µM.

From patent publication US20240228504A1, “SUBSTITUTED TRICYCLIC AMIDES, ANALOGUES THEREOF, AND METHODS USING SAME” (Arbutus Biopharma Corporation, priority 2020, published 2024)
